Where two headings read alike, the source gives them in different places.
Legend:
[1] = target: T1, HsPanK3 (Homo sapiens, UniProt Q9H999); assay: HsPanK kinetic assay (pyruvate kinase/lactic dehydrogenase coupled, NADH at 340 nm); format: biochemical; set-up: catalytic core domain of human PanK3 (amino acid residues 12–368); made in house; host or cells: E. coli BL21(DE3); conditions: for Substrate inhibition of HsPanK3: at rising substrate concentration (0–2,000 µM)
T1 sequence (Q9H999 12-368): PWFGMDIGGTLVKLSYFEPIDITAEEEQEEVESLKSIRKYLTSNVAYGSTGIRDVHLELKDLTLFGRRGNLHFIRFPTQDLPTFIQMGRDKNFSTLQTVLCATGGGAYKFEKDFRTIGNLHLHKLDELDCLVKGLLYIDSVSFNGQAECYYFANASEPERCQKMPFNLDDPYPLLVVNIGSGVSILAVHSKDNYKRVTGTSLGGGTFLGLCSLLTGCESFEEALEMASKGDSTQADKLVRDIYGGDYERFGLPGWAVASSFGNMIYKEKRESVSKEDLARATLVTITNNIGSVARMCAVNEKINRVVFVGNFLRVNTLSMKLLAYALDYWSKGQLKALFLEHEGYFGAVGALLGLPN
Description: The gene encoding the catalytic core domain of human PanK3 (amino acid residues 12–368) was synthesized and cloned into the pET28a(+) expression vector using the NdeI and BamHI restriction sites to produce an N-terminal His6-tagged protein (Bio Basic Inc.). The plasmid was transformed into E. coli BL21(DE3) cells, which were cultured in Terrific Broth (TB) medium containing 50 µg/mL kanamycin at 37°C. When the culture reached an optical density at 600 nm (OD600) of 0.6, protein expression was induced by adding 1.0 mM isopropyl β-D-thiogalactoside (IPTG), followed by incubation at 18°C for 17–18 h. The cells were then harvested and resuspended in lysis buffer (20 mM Tris-HCl, pH 7.5, 500 mM NaCl, 5 mM imidazole, 5% [vol/vol] glycerol) supplemented with 1 mM PMSF (phenylmethylsulfonyl fluoride) and lysozyme (5 mg/g of the cell pellet). The suspension was then sonicated on ice, and the resulting lysate was centrifuged twice at 54,000 × g for 30 min at 4°C.
The clarified supernatant was incubated with Ni-NTA resin (Cytiva) pre-equilibrated with lysis buffer containing 5 mM imidazole at 4°C. After binding, the resin was washed with lysis buffer containing 30 mM imidazole, then eluted with lysis buffer containing 250 mM imidazole. The eluted HsPanK3 protein was dialyzed against storage buffer (20 mM Tris-HCl, pH 7.5, 200 mM NaCl, 5% [vol/vol] glycerol) and concentrated. The purified protein was stored at −80°C. Protein purity was assessed using SDS-PAGE and deemed >50% (Fig. S4).
The enzyme assay was adapted from a previously described method ([103]), which links the production of ADP to the consumption of NADH through the enzymatic activities of pyruvate kinase and lactic dehydrogenase. Reactions were conducted in 96-well microtiter plates, and the decrease in NADH concentration was measured at 340 nm at 30 s intervals after incubation at 30°C. Each reaction mixture (200 µL) contained the desired compound (substrate) at variable concentrations (0–2,000 µM), ATP (1.5 mM), NADH (0.3 mM), phospho(enol)pyruvate (2.0 mM), MgCl2 (10 mM), KCl (20 mM), a commercial pyruvate kinase/lactic dehydrogenase mixture (12 units, Sigma-Aldrich), and pantothenate kinase (0.48 µM) in 50 mM Tris–HCl buffer (pH 7.6). The reaction was initiated with the addition of ATP. The kinetic parameters were determined by fitting the rate data into the Michaelis–Menten equation using GraphPad Prism 8.0 with nonlinear regressions. Data were collected from three independent experiments, each performed in triplicate to verify the trends and optimize the selected concentrations. The kinetic parameters were calculated from the most complete triplicate set of data, and errors represent SEM.

[2] = system: intraerythrocytic P. falciparum; assay: In vitro parasite proliferation assay (SYBR Safe-based fluorescence); format: cell-based, Plasmodium falciparum (3D7 strain); conditions: for IC50: Plasmodium falciparum, intraerythrocytic stage, 96 h; for Antiplasmodial IC50 range, in words: 1 µM pantothenate
Description: Culturing of intraerythrocytic stage P. falciparum parasites (3D7 strain) was carried out using a method adapted from Trager and Jensen ([97]) and Allen and Kirk ([98]). Parasites were maintained within human, male or female, erythrocytes (typically Group O+, Rh+, 4% hematocrit) in RPMI-1640 medium (Thermo Fisher Scientific, catalogue number 72400120) supplemented with 25 mM HEPES, 11 mM glucose, 200 μM hypoxanthine, 24 μg/mL gentamicin and 6 g/L Albumax II on a horizontally rotating shaking incubator (New Brunswick Innova 42/[…]) at 37°C under an atmosphere of 96% nitrogen, 3% carbon dioxide, and 1% oxygen. To evaluate the effect of each compound on the in vitro proliferation of P. falciparum parasites, a SYBR Safe-based fluorescence assay was used as previously described ([32]). All pantothenamide-mimics tested were initially dissolved to a concentration of 200 mM in DMSO. The final DMSO concentration in the assay never exceeded 0.1% (vol/vol). Assays were performed using the same medium used to culture the parasites. […] Assays were set up with synchronous ring-stage P. falciparum-infected erythrocytes in 96-well microtiter plates. Parasites were synchronized using 5% (wt/vol) sorbitol ([100]). […] P. falciparum-infected erythrocytes incubated in the presence of 0.5 μM chloroquine were used as a non-proliferation control, and those incubated in the absence of compounds and chloroquine served as a 100% parasite proliferation control. To minimize “edge effects” ([101], [102]), the outermost rows and columns of the microtiter plates were not used in the proliferation assays and were filled with 200 μL of medium. The plates were then incubated at 37°C for 96 h under a low-oxygen atmosphere. At the end of the incubation, plates were frozen at -80°C to lyse the cells. […] The fluorescence in the non-proliferation control wells was subtracted from the fluorescence readings in the other wells prior to further analysis. Parasite proliferation, calculated as a percentage of the fluorescence measured in the test wells relative to the fluorescence measured in the 100% parasite proliferation control wells, was then plotted against the logarithm of the compound concentration. […] IC50 values (determined from the sigmoidal curves) were averaged from three independent experiments.

[3] = relative to natural substrate pantothenate
[4] = RPMI-1640 containing 1 µM pantothenate, mean ± SEM of three experiments, read-out: IC50 (µM) against Pf at 1 µM Pan
[5] = RPMI-1640 containing 100 µM pantothenate, read-out: IC50 (µM) against Pf at 100 µM Pan

Structure (SMILES) | kcat of HsPanK3 compared with that of pantothenate, in words [1] | Fold lower kcat/Km of HsPanK3 compared to pantothenate [1, 3] | IC50 [2, 4] [µM] | IC50 [2, 5] [µM] | Ki [1] [µM] | Substrate inhibition of HsPanK3 [1] | Antiplasmodial IC50 range, in words [2] | Fold higher Km of HsPanK3 for compound compared to pantothenate [1, 3] [fold]
CC(C)(CO)[C@@H](O)C(=O)NCc1cnc(-c2ccccc2)s1 [Compound 3f] | slightly higher | ~ 3 fold | 8 ± 0.7 | > 50 | – | – | – | –
CC(C)(CO)[C@@H](O)C(=O)NCc1csc(Cc2ccccc2)n1 [Compound 2c] | same as | ~ 3 fold | 2.4 ± 0.2 | > 25 | 2650 | Substrate inhibition | – | –
CC(C)(CO)[C@@H](O)C(=O)NCc1nc(CCc2ccccc2)cs1 [Compound 1e] | slightly lower | – | 0.77 ± 0.09 | > 12.5 | – | – | sub-micromolar range | –
CCCCCc1csc(CNC(=O)[C@H](O)C(C)(C)CO)n1 [Compound 1c] | same as | ~ 3 fold | 2.3 ± 0.2 | > 25 | – | – | – | –
CC(C)(CO)[C@@H](O)C(=O)NCc1csc(-c2ccccc2)n1 [Compound 2e] | same as | – | 0.51 ± 0.02 | > 6.25 | 4340 | Substrate inhibition | sub-micromolar range | 2.8
CCCCc1csc(CNC(=O)[C@H](O)C(C)(C)CO)n1 [Compound 1a] | same as | – | 0.77 ± 0.1 | > 6.25 | – | – | sub-micromolar range | –

From paper PMC12406685, “Thiazole substitution of a labile amide bond—a new option toward antiplasmodial pantothenamide-mimics” (Antimicrobial Agents and Chemotherapy, 2025)
